Converted amounts (≈) assume the structure as drawn.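 Cells were grown in 96-well plates and exposed to each compound for 48 hours at five concentrations; endpoints were interpolated linearly between bracketing concentrations, or set to the highest concentration if not reached. The concentration for 50% growth inhibition is given as GI50. The concentration for full growth arrest is given as TGI.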
Experiments:
Test in all cases: inhibition of tumour cell growth, NCI panel, 48 h
[1] = test system: SF-295 CNS
[2] = test system: OVCAR-3 ovarian
[3] = test system: MDA-N
[4] = test system: DU-145 prostate
[5] = test system: SK-MEL-5 melanoma
[6] = test system: NCI-H522 lung
[7] = test system: HOP-62 NSCLC
[8] = test system: NCI-H460 lung
[9] = test system: M14 melanoma
[10] = test system: A498 renal
[11] = test system: UACC-62 melanoma
[12] = test system: SK-OV-3 ovarian
[13] = test system: CAKI-1 renal
[14] = test system: NCI-H226 lung
[15] = test system: OVCAR-5 ovarian
[16] = test system: HS 578T breast
[17] = test system: SNB-19 CNS
[18] = test system: SF-268 CNS
[19] = test system: A549 NSCLC
[20] = test system: SN12C renal
[21] = test system: U251 CNS
[22] = test system: COLO 205 colon
[23] = test system: T-47D breast
[24] = test system: MDA-MB-435
[25] = test system: 786-0 renal
[26] = test system: NCI-H23 lung
[27] = test system: HCC-2998 colon
[28] = test system: KM12 colon
[29] = test system: SR leukemia
[30] = test system: HL-60(TB) leukemia
[31] = test system: HOP-92 NSCLC
[32] = test system: IGROV1 ovarian
[33] = test system: CCRF-CEM leukemia
[34] = test system: HCT-15 colon
[35] = test system: PC-3 prostate
[36] = test system: MOLT-4 leukemia
[37] = test system: K-562 leukemia
[38] = test system: MCF7 breast
[39] = test system: HCT-116 colon
[40] = test system: NCI/ADR-RES ovarian
[41] = test system: SW-620 colon
[42] = test system: OVCAR-8 ovarian
[43] = test system: UACC-257 melanoma
[44] = test system: EKVX NSCLC
[45] = test system: OVCAR-4 ovarian
[46] = test system: MALME-3M melanoma
[47] = test system: ACHN renal
[48] = test system: SF-539 CNS
[49] = test system: SK-MEL-28 melanoma
[50] = test system: SK-MEL-2 melanoma
[51] = test system: MDA-MB-231 breast
[52] = test system: RXF 393 renal
[53] = test system: TK-10 renal
[54] = test system: HT29 colon
[55] = test system: LOX IMVI melanoma
[56] = test system: BT-549 breast
[57] = test system: UO-31 renal
[58] = test system: SNB-75 CNS
[59] = test system: RPMI-8226 leukemia

In the case of `NC1=C(c2nc(-c3cc4ccccc4oc3=O)cs2)C(c2ccco2)c2c(c3ccccc3oc2=O)O1` (configuration not stated), the GI50 [1] is reported as 130 µg/mL (≈ 255 µM), the TGI [1] is reported as over 150 µg/mL and the GI50 [2] is reported as over 150 µg/mL. It also gave a TGI [2] of over 150 µg/mL, a GI50 [3] of over 150 µg/mL and a TGI [3] of over 150 µg/mL. The GI50 [4] was over 150 µg/mL, the TGI [4] was over 150 µg/mL and the GI50 [5] was over 150 µg/mL. The TGI [5] was over 150 µg/mL, the GI50 [6] was over 150 µg/mL and the TGI [6] was over 150 µg/mL. The GI50 [7] was 22.4 µg/mL (≈ 44 µM), the TGI [7] was 81.1 µg/mL and the GI50 [8] was over 150 µg/mL. For the same compound, the TGI [8] was over 150 µg/mL, the GI50 [9] was 100 µg/mL (≈ 197 µM) and the TGI [9] was over 150 µg/mL. For the same compound, the GI50 [10] was 66.1 µg/mL (≈ 130 µM), the TGI [10] was over 150 µg/mL and the GI50 [11] was 112 µg/mL (≈ 220 µM). The TGI [11] was over 150 µg/mL, the GI50 [12] was 51.4 µg/mL (≈ 101 µM) and the TGI [12] was over 150 µg/mL. The GI50 [13] was over 150 µg/mL, the TGI [13] was over 150 µg/mL and the GI50 [14] was 43.1 µg/mL (≈ 84.8 µM). The TGI [14] was 131 µg/mL, the GI50 [15] was over 150 µg/mL and the TGI [15] was over 150 µg/mL. It also gave a GI50 [16] of 39.6 µg/mL (≈ 77.9 µM), a TGI [16] of 139 µg/mL and a GI50 [17] of 53.1 µg/mL (≈ 104 µM). It also gave a TGI [17] of over 150 µg/mL, a GI50 [18] of 68.4 µg/mL (≈ 135 µM) and a TGI [18] of over 150 µg/mL. For the same compound, the GI50 [19] was over 150 µg/mL, the TGI [19] was over 150 µg/mL and the GI50 [20] was over 150 µg/mL. It also gave a TGI [20] of over 150 µg/mL, a GI50 [21] of 21.7 µg/mL (≈ 42.6 µM) and a TGI [21] of 58.4 µg/mL. The GI50 [22] was over 150 µg/mL, the TGI [22] was over 150 µg/mL and the GI50 [23] was over 150 µg/mL. The TGI [23] was over 150 µg/mL, the GI50 [24] was over 150 µg/mL and the TGI [24] was over 150 µg/mL. For the same compound, the GI50 [25] was 20.2 µg/mL (≈ 39.8 µM), the TGI [25] was 71.3 µg/mL and the GI50 [26] was over 150 µg/mL. It also gave a TGI [26] of over 150 µg/mL, a GI50 [27] of over 150 µg/mL and a TGI [27] of over 150 µg/mL. The GI50 [28] was over 150 µg/mL, the TGI [28] was over 150 µg/mL and the GI50 [29] was 51.9 µg/mL (≈ 102 µM). For the same compound, the TGI [29] was over 150 µg/mL, the GI50 [30] was over 150 µg/mL and the TGI [30] was over 150 µg/mL. It also gave a GI50 [31] of 53.3 µg/mL (≈ 105 µM), a TGI [31] of over 150 µg/mL and a GI50 [32] of over 150 µg/mL. It also gave a TGI [32] of over 150 µg/mL, a GI50 [33] of 53.8 µg/mL (≈ 106 µM) and a TGI [33] of 147 µg/mL. The GI50 [34] was over 150 µg/mL, the TGI [34] was over 150 µg/mL and the GI50 [35] was over 150 µg/mL. It also gave a TGI [35] of over 150 µg/mL, a GI50 [36] of 119 µg/mL (≈ 235 µM) and a TGI [36] of over 150 µg/mL. It also gave a GI50 [37] of 95.9 µg/mL (≈ 188 µM), a TGI [37] of over 150 µg/mL and a GI50 [38] of over 150 µg/mL. The TGI [38] was over 150 µg/mL, the GI50 [39] was over 150 µg/mL and the TGI [39] was over 150 µg/mL. For the same compound, the GI50 [40] was over 150 µg/mL, the TGI [40] was over 150 µg/mL and the GI50 [41] was over 150 µg/mL. For the same compound, the TGI [41] was over 150 µg/mL, the GI50 [42] was over 150 µg/mL and the TGI [42] was over 150 µg/mL. It also gave a GI50 [43] of over 150 µg/mL, a TGI [43] of over 150 µg/mL and a GI50 [44] of 69.7 µg/mL (≈ 137 µM). It also gave a TGI [44] of over 150 µg/mL, a GI50 [45] of 68.3 µg/mL (≈ 134 µM) and a TGI [45] of over 150 µg/mL. For the same compound, the GI50 [46] was 120 µg/mL (≈ 235 µM), the TGI [46] was over 150 µg/mL and the GI50 [47] was 36.3 µg/mL (≈ 71.3 µM). It also gave a TGI [47] of over 150 µg/mL, a GI50 [48] of 96.9 µg/mL (≈ 190 µM) and a TGI [48] of over 150 µg/mL. For the same compound, the GI50 [49] was over 150 µg/mL, the TGI [49] was over 150 µg/mL and the GI50 [50] was 43.6 µg/mL (≈ 85.8 µM). The TGI [50] was 112 µg/mL, the GI50 [51] was 75.7 µg/mL (≈ 149 µM) and the TGI [51] was over 150 µg/mL. The GI50 [52] was 17.3 µg/mL (≈ 34 µM), the TGI [52] was 114 µg/mL and the GI50 [53] was 46.4 µg/mL (≈ 91.3 µM). It also gave a TGI [53] of 87.6 µg/mL, a GI50 [54] of over 150 µg/mL and a TGI [54] of over 150 µg/mL. For the same compound, the GI50 [55] was over 150 µg/mL and the TGI [55] was over 150 µg/mL.

With `CC1(C)[C@H](O)CC[C@]2(C)C3=CC[C@@]4(C)[C@@H]5C[C@](C)(CO)CC[C@]5(C)CC[C@]4(C)C3=CC[C@@H]12` the TGI [3] was over 100 µM, the TGI [4] was over 100 µM and the TGI [5] was over 100 µM. It also gave a TGI [6] of over 100 µM, a TGI [7] of over 100 µM and a TGI [9] of over 100 µM. For the same compound, the TGI [11] was over 100 µM, the TGI [12] was over 100 µM and the TGI [15] was over 100 µM. It also gave a TGI [18] of over 100 µM, a TGI [56] of over 100 µM and a TGI [22] of over 100 µM. For the same compound, the TGI [26] was over 100 µM, the TGI [29] was 4.72 µM and the TGI [30] was over 100 µM. The TGI [31] was over 100 µM, the TGI [32] was over 100 µM and the TGI [57] was 3.62 µM. For the same compound, the TGI [36] was over 100 µM, the TGI [38] was over 100 µM and the TGI [43] was over 100 µM. It also gave a TGI [44] of over 100 µM, a TGI [46] of over 100 µM and a TGI [49] of over 100 µM. The TGI [50] was over 100 µM.

`COc1cc(OC)c(/C=N/N=C(\N)NO)c(OC)c1` gave a TGI [1] of over 100 µM, a TGI [2] of over 100 µM and a TGI [3] of over 100 µM. For the same compound, the TGI [4] was over 100 µM, the TGI [5] was over 100 µM and the TGI [6] was over 100 µM. It also gave a TGI [7] of over 100 µM, a TGI [8] of over 100 µM and a TGI [9] of over 100 µM. For the same compound, the TGI [10] was over 100 µM, the TGI [11] was over 100 µM and the TGI [12] was over 100 µM. For the same compound, the TGI [13] was over 100 µM, the TGI [14] was over 100 µM and the TGI [15] was over 100 µM. The TGI [16] was over 100 µM, the TGI [17] was over 100 µM and the TGI [18] was over 100 µM. It also gave a TGI [19] of over 100 µM, a TGI [20] of over 100 µM and a TGI [21] of over 100 µM. For the same compound, the TGI [22] was over 100 µM, the TGI [58] was 64.7 µM and the TGI [23] was over 100 µM. It also gave a TGI [24] of over 100 µM, a TGI [25] of over 100 µM and a TGI [26] of over 100 µM. For the same compound, the TGI [27] was over 100 µM, the TGI [28] was 96.4 µM and the TGI [29] was over 100 µM. The TGI [31] was over 100 µM, the TGI [32] was over 100 µM and the TGI [57] was 81.2 µM. The TGI [33] was over 100 µM, the TGI [34] was over 100 µM and the TGI [35] was over 100 µM. For the same compound, the TGI [36] was over 100 µM, the TGI [37] was over 100 µM and the TGI [38] was over 100 µM. The TGI [39] was over 100 µM, the TGI [40] was over 100 µM and the TGI [41] was over 100 µM. For the same compound, the TGI [42] was over 100 µM, the TGI [59] was over 100 µM and the TGI [43] was over 100 µM. For the same compound, the TGI [44] was over 100 µM, the TGI [45] was over 100 µM and the TGI [46] was over 100 µM. The TGI [47] was over 100 µM, the TGI [48] was over 100 µM and the TGI [49] was over 100 µM. It also gave a TGI [50] of over 100 µM, a TGI [51] of over 100 µM and a TGI [52] of over 100 µM. The TGI [53] was over 100 µM, the TGI [54] was over 100 µM and the TGI [55] was over 100 µM.
